How the values were obtained:
[1] = molecular target: Homeodomain-interacting protein kinase 2 (Homo sapiens) (UniProt Q9H2X6); experiment: Inhibition of human recombinant HIPK2 at 40 nM related to control ULK1
[2] = molecular target: Serine/threonine-protein kinase PAK 6 (Homo sapiens) (UniProt Q9NQU5); experiment: Inhibition of human recombinant PAK6 at 40 nM related to control ULK1
[3] = molecular target: T1, Tyrosine-protein kinase ZAP-70 (Homo sapiens) (UniProt P43403); experiment: Inhibition of human recombinant ZAP70 at 40 nM related to control ULK1
T1 sequence (whole entry): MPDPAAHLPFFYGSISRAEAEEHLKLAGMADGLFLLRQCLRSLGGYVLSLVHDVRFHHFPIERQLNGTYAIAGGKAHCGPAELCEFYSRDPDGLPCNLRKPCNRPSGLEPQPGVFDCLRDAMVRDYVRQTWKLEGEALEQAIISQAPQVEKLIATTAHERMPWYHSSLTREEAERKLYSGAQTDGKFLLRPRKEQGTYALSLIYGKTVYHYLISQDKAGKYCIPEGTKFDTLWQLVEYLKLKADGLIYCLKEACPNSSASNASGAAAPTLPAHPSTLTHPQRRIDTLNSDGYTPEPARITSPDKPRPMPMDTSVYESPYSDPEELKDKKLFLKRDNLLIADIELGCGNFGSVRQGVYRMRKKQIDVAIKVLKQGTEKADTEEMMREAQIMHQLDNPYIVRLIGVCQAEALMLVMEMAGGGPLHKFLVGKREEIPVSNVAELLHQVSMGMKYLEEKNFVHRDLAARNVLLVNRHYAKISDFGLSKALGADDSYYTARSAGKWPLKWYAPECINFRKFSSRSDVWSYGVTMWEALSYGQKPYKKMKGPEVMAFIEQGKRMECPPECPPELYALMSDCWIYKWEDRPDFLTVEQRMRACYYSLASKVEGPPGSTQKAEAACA

[4] = molecular target: T2, Myosin-IIIb (Homo sapiens) (UniProt Q8WXR4); experiment: Inhibition of human recombinant MYO3B at 15 nM related to control ULK1
T2 sequence (whole entry): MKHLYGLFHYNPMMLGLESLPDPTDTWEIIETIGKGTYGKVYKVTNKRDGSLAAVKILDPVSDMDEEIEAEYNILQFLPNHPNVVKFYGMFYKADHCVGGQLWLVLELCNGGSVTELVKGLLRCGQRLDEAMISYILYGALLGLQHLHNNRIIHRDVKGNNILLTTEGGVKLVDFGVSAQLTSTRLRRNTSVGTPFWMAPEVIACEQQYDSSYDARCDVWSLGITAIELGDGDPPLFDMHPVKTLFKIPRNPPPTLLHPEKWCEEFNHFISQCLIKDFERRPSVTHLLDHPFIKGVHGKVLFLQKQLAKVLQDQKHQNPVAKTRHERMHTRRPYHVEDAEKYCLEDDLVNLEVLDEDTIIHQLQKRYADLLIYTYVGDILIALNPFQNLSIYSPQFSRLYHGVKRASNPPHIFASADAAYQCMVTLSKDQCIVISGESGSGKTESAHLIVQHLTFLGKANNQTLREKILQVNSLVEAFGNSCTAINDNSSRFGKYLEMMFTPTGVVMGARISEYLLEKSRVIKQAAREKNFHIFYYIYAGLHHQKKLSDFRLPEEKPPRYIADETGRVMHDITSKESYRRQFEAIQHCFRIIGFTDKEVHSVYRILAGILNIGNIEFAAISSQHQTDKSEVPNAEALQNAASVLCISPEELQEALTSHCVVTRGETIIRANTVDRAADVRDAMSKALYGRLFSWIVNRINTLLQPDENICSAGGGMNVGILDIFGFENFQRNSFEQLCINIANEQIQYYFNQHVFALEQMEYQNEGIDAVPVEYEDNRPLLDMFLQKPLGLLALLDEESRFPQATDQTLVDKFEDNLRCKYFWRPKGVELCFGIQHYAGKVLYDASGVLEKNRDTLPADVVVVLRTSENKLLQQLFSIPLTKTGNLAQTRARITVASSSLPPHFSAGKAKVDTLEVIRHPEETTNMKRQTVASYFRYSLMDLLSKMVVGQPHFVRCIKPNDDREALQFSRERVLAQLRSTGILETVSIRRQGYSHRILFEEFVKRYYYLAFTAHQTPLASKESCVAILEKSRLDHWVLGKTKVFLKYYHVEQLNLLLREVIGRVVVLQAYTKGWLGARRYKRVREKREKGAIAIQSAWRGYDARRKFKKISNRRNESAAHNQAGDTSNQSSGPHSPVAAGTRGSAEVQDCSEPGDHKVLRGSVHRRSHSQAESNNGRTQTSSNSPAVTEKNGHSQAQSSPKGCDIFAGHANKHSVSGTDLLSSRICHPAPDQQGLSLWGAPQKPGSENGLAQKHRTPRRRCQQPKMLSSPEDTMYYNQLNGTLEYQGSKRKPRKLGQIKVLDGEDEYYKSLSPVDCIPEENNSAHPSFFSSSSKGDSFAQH

[5] = molecular target: T3, Serine/threonine-protein kinase Nek11 (Homo sapiens) (UniProt Q8NG66); experiment: Inhibition of human recombinant NEK11 at 15 nM related to control ULK1
T3 sequence (whole entry): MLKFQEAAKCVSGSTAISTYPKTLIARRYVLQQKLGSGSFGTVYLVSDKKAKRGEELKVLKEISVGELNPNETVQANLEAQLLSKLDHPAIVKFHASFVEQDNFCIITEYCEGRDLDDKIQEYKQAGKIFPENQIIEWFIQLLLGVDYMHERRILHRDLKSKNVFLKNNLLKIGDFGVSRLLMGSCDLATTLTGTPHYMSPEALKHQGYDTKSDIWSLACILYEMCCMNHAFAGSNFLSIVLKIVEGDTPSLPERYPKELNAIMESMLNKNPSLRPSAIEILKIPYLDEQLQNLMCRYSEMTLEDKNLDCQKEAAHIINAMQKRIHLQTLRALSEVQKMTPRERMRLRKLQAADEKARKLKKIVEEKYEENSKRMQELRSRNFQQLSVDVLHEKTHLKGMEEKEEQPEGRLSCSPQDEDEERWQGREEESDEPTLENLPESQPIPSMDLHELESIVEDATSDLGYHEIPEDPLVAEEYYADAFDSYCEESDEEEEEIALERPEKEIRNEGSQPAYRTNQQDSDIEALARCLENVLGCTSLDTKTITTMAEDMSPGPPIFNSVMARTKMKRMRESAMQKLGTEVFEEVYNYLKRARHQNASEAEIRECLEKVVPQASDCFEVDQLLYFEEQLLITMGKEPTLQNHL

[6] = molecular target: Eukaryotic translation initiation factor 2-alpha kinase 1 (Homo sapiens) (UniProt Q9BQI3); experiment: Inhibition of human recombinant HRI at 500 nM in presence of ATP by radiometric assay relative to control
[7] = molecular target: Mitogen-activated protein kinase kinase kinase kinase 1 (Homo sapiens) (UniProt Q92918); experiment: Inhibition of human recombinant HPK1 at 500 nM related to control ULK1
[8] = molecular target: Mitogen-activated protein kinase 8 (Homo sapiens) (UniProt P45983); experiment: Inhibition of human recombinant JNK1 at 500 nM related to control ULK1
Chain of Mitogen-activated protein kinase 8 (Homo sapiens) (P45983 whole entry): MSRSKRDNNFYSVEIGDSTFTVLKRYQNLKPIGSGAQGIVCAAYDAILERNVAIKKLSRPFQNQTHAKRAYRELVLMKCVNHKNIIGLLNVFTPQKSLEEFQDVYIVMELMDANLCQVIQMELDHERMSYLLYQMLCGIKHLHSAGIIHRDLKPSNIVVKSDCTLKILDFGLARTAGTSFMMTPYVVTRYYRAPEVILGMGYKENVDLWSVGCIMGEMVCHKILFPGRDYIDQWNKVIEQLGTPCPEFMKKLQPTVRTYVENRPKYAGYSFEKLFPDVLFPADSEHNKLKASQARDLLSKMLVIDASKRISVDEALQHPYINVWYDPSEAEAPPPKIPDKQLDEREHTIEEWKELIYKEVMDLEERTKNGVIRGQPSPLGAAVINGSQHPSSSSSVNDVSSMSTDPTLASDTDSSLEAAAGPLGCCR

Chain of Mitogen-activated protein kinase kinase kinase kinase 1 (Homo sapiens) (Q92918 whole entry, looked up): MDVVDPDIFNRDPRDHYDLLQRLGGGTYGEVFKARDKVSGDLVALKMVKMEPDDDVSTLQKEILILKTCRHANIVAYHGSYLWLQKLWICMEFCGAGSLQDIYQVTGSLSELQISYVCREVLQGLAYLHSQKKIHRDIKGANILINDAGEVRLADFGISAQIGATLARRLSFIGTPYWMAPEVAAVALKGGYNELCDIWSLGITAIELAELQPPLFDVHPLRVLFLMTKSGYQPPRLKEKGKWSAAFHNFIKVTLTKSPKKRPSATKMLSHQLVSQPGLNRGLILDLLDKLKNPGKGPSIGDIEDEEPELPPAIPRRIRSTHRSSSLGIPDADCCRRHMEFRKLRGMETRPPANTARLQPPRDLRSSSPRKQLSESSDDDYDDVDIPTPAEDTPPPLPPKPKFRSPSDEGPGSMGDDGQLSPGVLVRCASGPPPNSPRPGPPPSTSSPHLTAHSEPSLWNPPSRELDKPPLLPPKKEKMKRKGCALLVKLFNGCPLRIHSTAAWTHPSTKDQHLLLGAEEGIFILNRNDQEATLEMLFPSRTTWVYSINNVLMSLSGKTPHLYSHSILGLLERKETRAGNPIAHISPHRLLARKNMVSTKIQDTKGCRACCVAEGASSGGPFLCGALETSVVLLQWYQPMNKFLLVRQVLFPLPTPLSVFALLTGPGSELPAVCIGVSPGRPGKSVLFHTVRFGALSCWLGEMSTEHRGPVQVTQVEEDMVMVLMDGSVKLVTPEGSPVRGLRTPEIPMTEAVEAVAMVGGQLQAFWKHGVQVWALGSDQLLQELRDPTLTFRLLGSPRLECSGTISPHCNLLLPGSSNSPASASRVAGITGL
Chain of Homeodomain-interacting protein kinase 2 (Homo sapiens) (Q9H2X6 whole entry, looked up): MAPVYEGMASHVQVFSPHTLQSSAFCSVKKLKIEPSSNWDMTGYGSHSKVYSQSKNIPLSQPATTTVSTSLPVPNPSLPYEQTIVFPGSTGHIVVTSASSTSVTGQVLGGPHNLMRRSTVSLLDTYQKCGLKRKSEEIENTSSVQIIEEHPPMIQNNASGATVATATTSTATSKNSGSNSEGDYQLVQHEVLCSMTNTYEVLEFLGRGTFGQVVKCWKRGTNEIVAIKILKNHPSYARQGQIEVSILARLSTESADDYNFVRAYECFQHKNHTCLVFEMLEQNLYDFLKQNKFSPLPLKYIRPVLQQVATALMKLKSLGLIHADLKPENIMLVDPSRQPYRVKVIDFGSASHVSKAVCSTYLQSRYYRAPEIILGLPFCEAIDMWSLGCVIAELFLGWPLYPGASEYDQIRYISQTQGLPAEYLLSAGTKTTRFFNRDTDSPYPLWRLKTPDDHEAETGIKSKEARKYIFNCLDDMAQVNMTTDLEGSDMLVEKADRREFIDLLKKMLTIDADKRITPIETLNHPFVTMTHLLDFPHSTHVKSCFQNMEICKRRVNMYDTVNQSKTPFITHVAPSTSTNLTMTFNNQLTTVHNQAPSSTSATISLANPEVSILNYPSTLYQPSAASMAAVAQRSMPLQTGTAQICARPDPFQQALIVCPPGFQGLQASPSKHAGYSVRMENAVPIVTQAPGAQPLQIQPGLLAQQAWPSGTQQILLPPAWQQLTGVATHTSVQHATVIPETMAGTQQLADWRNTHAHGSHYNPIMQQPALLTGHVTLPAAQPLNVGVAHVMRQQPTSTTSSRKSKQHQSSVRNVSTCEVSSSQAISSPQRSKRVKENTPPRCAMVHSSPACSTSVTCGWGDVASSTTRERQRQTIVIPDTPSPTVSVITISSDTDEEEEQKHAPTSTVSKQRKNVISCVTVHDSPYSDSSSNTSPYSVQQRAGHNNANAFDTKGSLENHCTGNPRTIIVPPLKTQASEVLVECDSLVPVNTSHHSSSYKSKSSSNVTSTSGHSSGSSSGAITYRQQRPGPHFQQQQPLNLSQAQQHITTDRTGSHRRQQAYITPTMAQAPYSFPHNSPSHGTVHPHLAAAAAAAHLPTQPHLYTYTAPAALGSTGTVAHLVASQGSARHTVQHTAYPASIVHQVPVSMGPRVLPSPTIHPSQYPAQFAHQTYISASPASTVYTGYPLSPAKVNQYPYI
Chain of Eukaryotic translation initiation factor 2-alpha kinase 1 (Homo sapiens) (Q9BQI3 whole entry): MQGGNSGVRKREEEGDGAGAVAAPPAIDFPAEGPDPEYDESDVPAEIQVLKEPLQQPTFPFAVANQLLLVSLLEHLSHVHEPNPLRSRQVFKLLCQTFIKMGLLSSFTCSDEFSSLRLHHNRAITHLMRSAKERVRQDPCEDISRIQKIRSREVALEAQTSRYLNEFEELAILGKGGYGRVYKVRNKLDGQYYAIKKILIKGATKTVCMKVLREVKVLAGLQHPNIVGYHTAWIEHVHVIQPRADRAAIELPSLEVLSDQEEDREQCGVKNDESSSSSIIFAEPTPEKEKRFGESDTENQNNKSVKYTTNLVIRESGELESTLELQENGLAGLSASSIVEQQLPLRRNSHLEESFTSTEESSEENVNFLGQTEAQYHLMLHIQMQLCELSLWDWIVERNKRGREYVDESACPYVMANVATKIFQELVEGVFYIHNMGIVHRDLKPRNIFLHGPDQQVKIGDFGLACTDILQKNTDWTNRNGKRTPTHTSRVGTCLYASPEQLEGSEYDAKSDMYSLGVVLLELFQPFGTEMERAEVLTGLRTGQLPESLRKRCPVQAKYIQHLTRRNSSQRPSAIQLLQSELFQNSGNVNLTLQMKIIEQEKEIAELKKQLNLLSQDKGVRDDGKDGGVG
Chain of Serine/threonine-protein kinase PAK 6 (Homo sapiens) (Q9NQU5 whole entry, looked up): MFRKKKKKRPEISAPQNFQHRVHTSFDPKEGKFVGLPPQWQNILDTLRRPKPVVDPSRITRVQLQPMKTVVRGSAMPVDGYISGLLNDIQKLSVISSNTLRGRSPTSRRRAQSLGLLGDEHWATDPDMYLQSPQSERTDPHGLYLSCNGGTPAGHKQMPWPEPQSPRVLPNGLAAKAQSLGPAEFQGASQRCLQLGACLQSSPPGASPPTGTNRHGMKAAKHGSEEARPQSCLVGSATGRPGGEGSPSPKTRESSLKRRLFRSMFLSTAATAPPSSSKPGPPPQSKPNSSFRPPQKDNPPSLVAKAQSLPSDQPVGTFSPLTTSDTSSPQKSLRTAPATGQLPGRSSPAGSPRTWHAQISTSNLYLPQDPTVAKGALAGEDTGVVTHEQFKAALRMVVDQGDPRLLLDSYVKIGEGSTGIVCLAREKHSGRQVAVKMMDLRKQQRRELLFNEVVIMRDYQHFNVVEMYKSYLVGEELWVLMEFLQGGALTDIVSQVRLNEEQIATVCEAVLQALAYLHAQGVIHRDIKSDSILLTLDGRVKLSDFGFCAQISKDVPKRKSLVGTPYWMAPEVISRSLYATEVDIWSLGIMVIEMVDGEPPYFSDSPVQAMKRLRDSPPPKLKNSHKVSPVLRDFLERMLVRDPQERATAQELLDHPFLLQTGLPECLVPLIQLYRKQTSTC

SMILES: O=C(N[C@@H](C1CC1)C(F)(F)F)c1cc(-c2cnn3cc(-c4ccc(F)cc4)cnc23)cs1
- fold change (FC) [1]: 0
- fold change (FC) [2]: 0.1
- fold change (FC) [3]: 0

SMILES: CC(C)[C@H](NC(=O)c1cc(-c2cnn3cc(-c4ccc(OCCN5CCCCC5)cc4)cnc23)cs1)C(F)(F)F
- fold change (FC) [4]: 0.07
- fold change (FC) [5]: 0

SMILES: CNC(=O)c1ccccc1Oc1nc(Nc2cc(OC)c(OC)c(OC)c2)ncc1Br
- inhibition [6]: 0%
- fold change (FC) [7]: 0.43
- fold change (FC) [8]: 0.01

Reference: ChEMBL document CHEMBL5653631, “A Potent and Selective ULK1 Inhibitor Suppresses Autophagy and Sensitizes Cancer Cells to Nutrient Stress” (iScience, 2018)
